In patent publication US20200197409A1, “HEPATITIS B VIRUS SURFACE ANTIGEN INHIBITOR” (FUJIAN COSUNTER PHARMACEUTICAL CO., LTD., priority 2017, published 2020):

Key:
HBV [1] = experiment: Anti-HBV activity on the hepatitis B virus mouse model (AAV-HBV); type: in vivo, C57BL/6 mice; settings: 10 mg/kg, PO
Protocol: The AAV vector-mediated HBV infected mouse model is a fast and efficient HBV model. Using the high hepatotropism of the AAV vector, the recombinant adeno-associated type 8 virus carrying 1.3 copies of the HBV genome (rAAV8-1.3HBV) is injected into the tail vein of mice, which can efficiently introduce the carried 1.3 copy HBV genome into hepatocytes. Due to the characteristics of the AAV viral vector, the vector mediated by it can express for a long time. The AAV/HBV model can continuously replicate HBV DNA and express HBsAg and HBeAg in the liver of the mice.
The anti-HBV efficacy of the test compound in vivo was evaluated by determining the content of HBsAg in the serum of the mice after treatment with the test compound on AAV/HBV mouse mode.
C57BL/6 mice, 10% HP-f-CD as vehicle, reference compound TDF (Tenofovir), test compound, recombinant virus rAAVS-1.3HBV, main reagents of the experiment including QIAamp96 DNA kit and TaqMan® Universal PCR Master Mix, Hepatitis B Virus Surface Antigen Detection Kit, instruments including: centrifuge (Beckman Allegra X-15R), tissue grinder (QIAGEN-Tissue lyser II) and spectrophotometer (Thermo-NANODROP 1000).
a) All mice were orally administered on the 28th day after the virus injection, and the day was set as day 0. Submaxillary blood of all mice was collected for serum collection before administration. The mice were administered once a day for four weeks.
b) Submaxillary blood of all mice was collected for serum collection twice a week, the volume of the blood collected each time was approximately 100 μL.
c) On the 28th day, all mice were euthanized and the blood was collected from the heart for serum collection.
The content of HBsAg in the serum of the mice was determined by ELISA. The experimental procedure refers to the specification of HBsAg ELISA kit.
a) The anti-HBV activity of the test compound on AAV/HBV mice model was evaluated by determining the content of HBsAg in the plasma of the mice.

HBV [2] = experiment: In vivo pharmacodynamic study of hydrodynamic injection mouse HBV model (HDI-HBV) via tail vein; set-up: species or system Balb/c mice; settings: mouse plasma
Protocol: Anti-hepatitis B virus activity of the compound of the embodiment in vivo was evaluated by HDI mice model.
Balb/c mice, 10% HP—F-CD as vehicle, test compound, RG7834, ETV (Entecavir), pAAV2-HBV 1.3mer plasmid (extracted with Qiagen EndoFree Plasmid Giga kit), main reagents including QIAamp96 DNA kit and FasStart Universal Probe Mast (ROX). The main instruments used in this experiment included centrifuge (Beckman Allegra X-15R), tissue grinder (QIAGEN-Tissue lyser II) and spectrophotometer (Thermo-NANODROP 1000).
b) On day 0, all mice were subjected to hydrodynamic injection with HBV plasmid DNA solution via tail vein. The plasmid DNA was pre-treated with sterile physiological saline before injection and stored at 4° C. until use. Plasmid DNA solution was injected via the tail vein at a dose of 8% of the body weight of the mouse within 5 seconds.
c) On the 1st day to the 7th day, the mice were administered with the compound or solvent by oral gavage for 7 days.
d) On the 1st day, 3rd day and 5th day, the blood was collected from the submandibular vein of the mice, and heparin sodium was used as an anticoagulant. The blood sample was centrifuged at 7,000×g, 4° C. to prepare the plasma for the determination of HBV DNA.
e) On the 7^h day, all mice were euthanized by CO2. The blood was collected from the heart to prepare plasma, and the liver tissue was collected. Two left hepatic lobe were isolated, the size of which was 70-100 mg, and were frozen by liquid nitrogen immediately after collection. One of the hepatic lobe was used for HBV DNA detection, and the other was used for backup.
The content of HBsAg in the serum of the mice was determined by ELISA (enzyme linked immunosorbent assay). The experimental procedure refers to the specification of HBsAg ELISA kit.
The inhibitory activity of the test compound on HBV replication on the mouse HDI model was determined by measuring the content of HBsAg in the plasma of the mice.

hepatitis B = settings: woodchuck model, RG7834 as a single drug; cited from earlier work
[3] = 14-day pre-toxicology tolerance test on rat; type: in vivo; settings: once a day for 14 days, male rats
Protocol: [table] A total of 21 animals in this experiment were randomly divided into 7 groups. The animals were orally administered with the test compounds once a day for 14 consecutive days, and the toxicity was evaluated. Animal necropsy and tissue would be taken from the fixative, repaired, dehydrated, embedded, sectioned, stained and microscopically examined. These tissues included the liver, heart and lung of all animals, and spleen, stomach, duodenum, jejunum, ileum, and kidney of partial animals.

COCCCOc1cc2c(cc1OC)-c1cc(=O)c(C(=O)O)cn1[C@H](C(C)C)C2 [RG7834, reference compound]
HBsAg content in the plasma of the mice (HBV [1]; day 4): 3.54 IU/mL
HBsAg content in the plasma of the mice (HBV [1]; day 7): 3.58 IU/mL
HBsAg content in the plasma of the mice (HBV [1]; day 11): 3.70 IU/mL
HBsAg content in the plasma of the mice (HBV [1]; day 14): 3.49 IU/mL
HBsAg content in the plasma of the mice (HBV [1]; day 18): 3.70 IU/mL
HBsAg content in the plasma of the mice (HBV [1]; day 21): 3.52 IU/mL
HBsAg content in the plasma of the mice (HBV [1]; day 25): 3.50 IU/mL
HBsAg content in the plasma of the mice (HBV [1]; day 28): 3.66 IU/mL
HBsAg content in the plasma of the mice (HBV [1]; day −1): 4.56 IU/mL
Log HBsAg (IU/mL) (Ave. value) (HBV [2]; dosing time day 1, 30 mg/kg QD gavage): 3.75 IU/mL
Log HBsAg (IU/mL) (Ave. value) (HBV [2]; dosing time day 3, 30 mg/kg QD gavage): 4.08 IU/mL
Log HBsAg (IU/mL) (Ave. value) (HBV [2]; dosing time day 5, 30 mg/kg QD gavage): 3.59 IU/mL
Log HBsAg (IU/mL) (Ave. value) (HBV [2]; dosing time day 7, 30 mg/kg QD gavage): 1.10 IU/mL
reduction of HBV-DNA (hepatitis B): 1.7 Log
reduction of surface antigens (hepatitis B): 2.57 Log
histopathological changes associated with the test compound ([3]; high dose group (1000 mg/kg)): mild myocardial degeneration in the heart, mild degeneration of central hepatic cells in the small lobules of the liver, mild decrease of white pulp lymphocytes in the spleen, and moderate acute inflammation of the duodenal mucosa
histopathological changes associated with the test compound ([3]; medium and low dose groups (300 and 100 mg/kg), heart, liver and lung examined): no histopathological changes associated with the test compound were observed

C=C1[C@H](CO)[C@@H](O)C[C@@H]1n1cnc2c(=O)[nH]c(N)nc21 [Entecavir]
Log HBsAg (IU/mL) (Ave. value) (HBV [2]; dosing time day 1, 0.1 mg/kg QD gavage): 3.66 IU/mL
Log HBsAg (IU/mL) (Ave. value) (HBV [2]; dosing time day 3, 0.1 mg/kg QD gavage): 4.32 IU/mL
Log HBsAg (IU/mL) (Ave. value) (HBV [2]; dosing time day 5, 0.1 mg/kg QD gavage): 4.01 IU/mL
Log HBsAg (IU/mL) (Ave. value) (HBV [2]; dosing time day 7, 0.1 mg/kg QD gavage): 2.46 IU/mL
